This note sets out measurements from PubChem BioAssay AID330 (DTP/NCI, 2004).

This test deals with P388 leukemia ip, CD2F1 mice, survival T/C. Briefly: NCI In Vivo Anticancer Drug Screen. Data for tumor model P388 Leukemia (intraperitoneal) in CD2F1 (CDF1) mice. As to conditions: endpoint: median survival time, higher = longer survival. The essentials: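 Mice carrying the transplanted tumor received test compound or vehicle. Survival was recorded in each group, and the value is the treated-group measurement divided by that of the vehicle-treated control group.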

Setting [1] is: dose: 50.0 mg/kg/injection, schedule: Q01DX005 (ip), vehicle: saline with Tween-80.
Setting [2] is: dose: 100.0 mg/kg/injection, schedule: Q01DX005 (ip), vehicle: saline with Tween-80.
The mark [3] stands for this setting: dose: 200.0 mg/kg/injection, schedule: Q01DX005 (ip), vehicle: saline with Tween-80.
Setting [4] is: dose: 60.0 mg/kg/injection, schedule: Q01DX005 (ip), vehicle: Klucel (hydroxypropylcellulose) (HPC).
The mark [5] stands for this setting: dose: 120.0 mg/kg/injection, schedule: Q01DX005 (ip), vehicle: Klucel (hydroxypropylcellulose) (HPC).
[6] abbreviates: dose: 6.25 mg/kg/injection, schedule: Q01DX009 (ip), vehicle: saline with Tween-80.
Where [7] appears, read: dose: 12.5 mg/kg/injection, schedule: Q01DX009 (ip), vehicle: saline with Tween-80.
The mark [8] stands for this setting: dose: 25.0 mg/kg/injection, schedule: Q01DX009 (ip), vehicle: saline with Tween-80.
Where [9] appears, read: dose: 50.0 mg/kg/injection, schedule: Q01DX009 (ip), vehicle: saline.
Setting [10] is: dose: 50.0 mg/kg/injection, schedule: Q01DX009 (ip), vehicle: saline with Tween-80.
Where [11] appears, read: dose: 100.0 mg/kg/injection, schedule: Q01DX009 (ip), vehicle: saline with Tween-80.
[12] abbreviates: dose: 200.0 mg/kg/injection, schedule: Q01DX009 (ip), vehicle: saline with Tween-80.
Setting [13] is: dose: 60.0 mg/kg/injection, schedule: Q01DX005 (ip), vehicle: saline with Tween-80.
[14] abbreviates: dose: 120.0 mg/kg/injection, schedule: Q01DX005 (ip), vehicle: saline with Tween-80.
The mark [15] stands for this setting: dose: 240.0 mg/kg/injection, schedule: Q01DX005 (ip), vehicle: saline with Tween-80.

Each structure is given as a SMILES string. Several values for one entry are separate records, joined by “and”; a condition that tells them apart may be missing. Identical values can stand only once. Inconclusive results and toxic doses are left out.

On to `C[C@@H]1CN1C1=CC(=O)C(N2C[C@H]2C)=CC1=O`, for which the T/C runs as follows: (dose: 0.31 mg/kg/injection, schedule: Q01DX009 (ip), vehicle: gum acacia) 122 % of control; (dose: 1.25 mg/kg/injection, schedule: Q01DX009 (ip), vehicle: gum acacia) 169 % of control; (dose: 2.5 mg/kg/injection, schedule: Q01DX009 (ip), vehicle: gum acacia) 166 % of control and 169 % of control; (dose: 5.0 mg/kg/injection, schedule: Q01DX009 (ip), vehicle: gum acacia) 169 % of control and 173 % of control; (dose: 37.0 micrograms/kg/injection, schedule: Q01DX009 (ip), vehicle: gum acacia) 102 % of control; (dose: 75.0 micrograms/kg/injection, schedule: Q01DX009 (ip), vehicle: gum acacia) 113 % of control. In addition, the T/C is, setting by setting: (dose: 150.0 micrograms/kg/injection, schedule: Q01DX009 (ip), vehicle: gum acacia) 117 % of control; (dose: 310.0 micrograms/kg/injection, schedule: Q01DX009 (ip), vehicle: gum acacia) 111 % of control.
As to `CC(=O)C1C(C)C(C(C)=O)N2C1SC1CCOC12C` (stereo not given), the T/C by setting is: (dose: 10.0 mg/kg/injection, schedule: Q01DX001 (ip), vehicle: suspension in saline) 106 % of control; (dose: 20.0 mg/kg/injection, schedule: Q01DX001 (ip), vehicle: suspension in saline) 105 % of control; (dose: 40.0 mg/kg/injection, schedule: Q01DX001 (ip), vehicle: suspension in saline) 101 % of control; (dose: 80.0 mg/kg/injection, schedule: Q01DX001 (ip), vehicle: suspension in saline) 102 % of control.
Turning to `CCC(=O)C(=O)NC(C)C(C)=O` (stereo not given), the T/C is, setting by setting: under setting [1], 99 % of control; under setting [2], 98 % of control; under setting [3], 100 % of control.
Consider `O=C1c2ccccc2C(=O)c2c(O)c(NCCCN(CCO)CCO)cc(O)c21`, for which the T/C under setting [1] is 101 % of control, the T/C under setting [2] was 109 % of control and the T/C under setting [3] is 113 % of control.
In the case of `O=C1C(N=Nc2ccccc2)Sc2nc3ccccc3n21` (stereo not given), the T/C is 90 % of control under setting [4] and 86 % of control under setting [5].
`N#CC(=C1N=c2ccccc2=N1)c1[nH]c(O)c2ccccc12`: the T/C under setting [6] is 93 % of control, the T/C under setting [7] is 91 % of control and the T/C under setting [8] was 94 % of control.
In the case of `[CH3][Sn]([CH3])([CH3])[O][N+](=O)[O-]`, the T/C runs as follows: (dose: 0.37 mg/kg/injection, schedule: Q01DX009 (ip), vehicle: saline) 111 % of control; (dose: 0.75 mg/kg/injection, schedule: Q01DX009 (ip), vehicle: saline) 91 % of control.
As to `O=[N+]([O-])c1cnc(Sc2ccncn2)c([N+](=O)[O-])c1`, the T/C (dose: 3.12 mg/kg/injection, schedule: Q01DX009 (ip), vehicle: saline with Tween-80) is 105 % of control; the T/C under setting [6] was 98 % of control; the T/C under setting [7] was 102 % of control; the T/C (dose: 12.5 mg/kg/injection, schedule: Q01DX009 (ip), vehicle: saline) was 100 % of control; the T/C (dose: 25.0 mg/kg/injection, schedule: Q01DX009 (ip), vehicle: saline) is 89 % of control; the T/C under setting [9] is 99 % of control.
`CC1=C2CCC3(C)C(=C2OC1=O)C(C)=C(Cl)C(Cl)C3Cl` (stereo not given): the T/C by setting is: (dose: 50.0 mg/kg/injection, schedule: Q01DX005 (ip), vehicle: Klucel (hydroxypropylcellulose) (HPC)) 113 % of control; (dose: 100.0 mg/kg/injection, schedule: Q01DX005 (ip), vehicle: Klucel (hydroxypropylcellulose) (HPC)) 119 % of control; (dose: 200.0 mg/kg/injection, schedule: Q01DX005 (ip), vehicle: Klucel (hydroxypropylcellulose) (HPC)) 115 % of control.
For the molecule `CC(C)CC(C)NC(C)CC(C)C` (stereo not given), the T/C was 90 % of control (dose: 12.5 mg/kg/injection, schedule: Q01DX005 (ip), vehicle: saline); 97 % of control (dose: 25.0 mg/kg/injection, schedule: Q01DX005 (ip), vehicle: saline); 102 % of control and 92 % of control (dose: 50.0 mg/kg/injection, schedule: Q01DX005 (ip), vehicle: saline).
Turning to `CCC(C)Nc1c(N)cc(C(F)(F)F)cc1N` (stereo not given), the T/C is 98 % of control under setting [4]; 97 % of control under setting [5]; 99 % of control (dose: 240.0 mg/kg/injection, schedule: Q01DX005 (ip), vehicle: Klucel (hydroxypropylcellulose) (HPC)).
For `CC1CC(C)(C)N=C(CCC2CCCC23OCCO3)O1` (stereo not given), the T/C under setting [10] was 100 % of control; the T/C under setting [11] was 104 % of control; the T/C (dose: 100.0 mg/kg/injection, schedule: Q04DX003 (ip), vehicle: saline sonified) is 96 % of control; the T/C under setting [12] was 95 % of control; the T/C (dose: 200.0 mg/kg/injection, schedule: Q04DX003 (ip), vehicle: saline sonified) was 96 % of control; the T/C (dose: 400.0 mg/kg/injection, schedule: Q04DX003 (ip), vehicle: saline sonified) is 100 % of control.
For the molecule `CCN(CC)[P+](C1=C(Cl)C(=O)C(C#N)=C(C#N)C1=O)(N(CC)CC)N(CC)CC`, the T/C reads like this: (dose: 3.1 mg/kg/injection, schedule: Q01DX009 (ip), vehicle: saline with Tween-80) 108 % of control; under setting [6], 99 % of control; under setting [7], 99 % of control; under setting [8], 87 % of control; under setting [10], 101 % of control.
`CSc1ncc(C=O)n1Cc1ccccc1`: the T/C is 115 % of control (dose: 17.5 mg/kg/injection, schedule: Q01DX005 (ip), vehicle: Klucel (hydroxypropylcellulose) (HPC)); 98 % of control (dose: 35.0 mg/kg/injection, schedule: Q01DX005 (ip), vehicle: Klucel (hydroxypropylcellulose) (HPC)); 101 % of control (dose: 70.0 mg/kg/injection, schedule: Q01DX005 (ip), vehicle: Klucel (hydroxypropylcellulose) (HPC)).
As for `CSC(/C=C1\C=CN(Cc2ccccc2)c2ccccc21)=N\S(=O)(=O)c1ccc(C)cc1`, the T/C is, setting by setting: (dose: 25.0 mg/kg/injection, schedule: Q04DX002 (ip), vehicle: saline with Tween-80) 102 % of control; (dose: 50.0 mg/kg/injection, schedule: Q04DX002 (ip), vehicle: saline with Tween-80) 97 % of control; (dose: 100.0 mg/kg/injection, schedule: Q04DX002 (ip), vehicle: saline with Tween-80) 97 % of control.
With `COC(=O)C1(CC(=O)c2ccco2)NC(=S)NC(=O)C1C#N` (stereo not given), the T/C under setting [13] is 98 % of control, the T/C under setting [14] is 94 % of control and the T/C under setting [15] is 93 % of control.
`O=S(=O)(c1ccc(NC(=S)NCc2cccnc2)cc1)N1CCCCC1`: the T/C reads like this: (dose: 50.0 mg/kg/injection, schedule: Q01DX009 (ip), vehicle: Klucel (hydroxypropylcellulose) (HPC)) 92 % of control; (dose: 100.0 mg/kg/injection, schedule: Q01DX009 (ip), vehicle: Klucel (hydroxypropylcellulose) (HPC)) 93 % of control; (dose: 200.0 mg/kg/injection, schedule: Q01DX009 (ip), vehicle: Klucel (hydroxypropylcellulose) (HPC)) 95 % of control.
Regarding `O=C(CCN1CC1)Nc1ccc(NC(=O)CCN2CC2)cc1`, the T/C is 198 % of control (dose: 10.0 mg/kg/injection, schedule: Q04DX003 (ip), vehicle: Klucel (hydroxypropylcellulose) (HPC)) and 227 % of control (dose: 20.0 mg/kg/injection, schedule: Q04DX003 (ip), vehicle: Klucel (hydroxypropylcellulose) (HPC)).
On to `CCCCCc1nc(N)nc(-c2nc(N)nc(CCCCC)c2C)c1C`, for which the T/C runs as follows: (dose: 60.0 mg/kg/injection, schedule: Q01DX005 (ip), vehicle: saline) 96 % of control; (dose: 120.0 mg/kg/injection, schedule: Q01DX005 (ip), vehicle: saline) 100 % of control.
As for `Nc1nnc(CCC(=O)Nc2cc(Cl)c(Cl)cc2Cl)n1N`, the T/C was 108 % of control under setting [13], 111 % of control under setting [14] and 121 % of control under setting [15].
With `Cc1ccc(S(=O)(=O)N=P(c2ccccc2)(c2ccccc2)c2ccccc2)cc1`, the T/C under setting [11] is 91 % of control and the T/C under setting [12] was 95 % of control.
With `CC(C)OP(=S)(S)OC(C)C`, the T/C is, setting by setting: under setting [9], 114 % of control; (dose: 100.0 mg/kg/injection, schedule: Q01DX009 (ip), vehicle: saline) 118 % of control; (dose: 200.0 mg/kg/injection, schedule: Q01DX009 (ip), vehicle: saline) 97 % of control.
